Source: patent US10596092B2, “Deodorant composition and a method for preparing thereof” (priority 2017, dated 2020)

Test: Neutralization of odoriferous acid by GC-FID
Type: physicochemical
Method: Hexamine, which is weakly basic in nature, was incubated with two commonly known odoriferous acids, i.e., 3-hydroxy-3-methyl-hexanoic acid (HMHA) and hexanoic acid, and the potential neutralization effect was studied by using a Gas Chromatograph with a Flame Ionization Detector (GC-FID). The chromatograms showing the neutralization of 3-hydroxy-3-methyl-hexanoic acid (HMHA) by sodium hydroxide and hexamine; and the neutralization of hexanoic acid by hexamine are shown in FIGS. 1 and 2, respectively.

Which “neutralization of odoriferous acid” value (FIG. 1) does the source give for `C1N2CN3CN1CN(C2)C3` [hexamine] here?
Its value is “capable of neutralizing the tested odoriferous acids”.

And the “neutralization of odoriferous acid” value (FIG. 2)?
Its value is “capable of neutralizing the tested odoriferous acids”.
